Test results published in patent US9506039B2, “Efficient method for establishing induced pluripotent stem cells” (Kyoto University, priority 2010, dated 2016).

Tested on: human dermal fibroblasts (HDF: cell name 1616)
Assay: iPS cell colony establishment, 3 genes (Oct3/4, Sox2, Klf4) plus added gene or compound
Format: cell-based
Settings: Example 9, FIG. 9; Oct3/4, Sox2, Klf4 plus agent in medium (PS48 10 μM, CHIR99021 1 μM, Wnt3a 10 ng/ml); day 32
Description: The following genes were introduced into human dermal fibroblasts (HDF: cell name 1616, purchased from Cell applications, Inc.) in the same manner as in the aforementioned Example 1.
In addition, the culture condition was changed (5×10^5 cells/well), and the following genes were introduced into human dermal fibroblasts (HDF: cell name 1616, purchased from Cell applications, Inc.) in the same manner.
In the same manner as in the aforementioned Example 1, the following genes were introduced into dermal fibroblasts (HDF: cell name 1616) in the presence of each low-molecular-weight compound.
The following genes were introduced into dermal fibroblasts (HDF: cell name 1616) in the same manner as in the aforementioned Example 1.
The following genes were introduced into human dermal fibroblasts (HDF: cell name 1616) in the same manner as in the aforementioned Example 1.
Furthermore, the following genes were introduced into human dermal fibroblasts (HDF: cell name 1616).

Molecule	number of human iPS cell colonies
O=C(O)/C=C(/CCc1ccc(Cl)cc1)c1ccccc1 [PS48]	increased significantly
Cc1c[nH]c(-c2cnc(NCCNc3ccc(C#N)cn3)nc2-c2ccc(Cl)cc2Cl)n1 [CHIR99021]	tended to decrease
Wnt3a: Wnt3a purchased from R&D systems Inc., added to the medium (protein, UniProt P56704 19-352, looked up) Protein Wnt-3a: SYPIWWSLAVGPQYSSLGSQPILCASIPGLVPKQLRFCRNYVEIMPSVAEGIKIGIQECQHQFRGRRWNCTTVHDSLAIFGPVLDKATRESAFVHAIASAGVAFAVTRSCAEGTAAICGCSSRHQGSPGKGWKWGGCSEDIEFGGMVSREFADARENRPDARSAMNRHNNEAGRQAIASHMHLKCKCHGLSGSCEVKTCWWSQPDFRAIGDFLKDKYDSASEMVVEKHRESRGWVETLRPRYTYFKVPTERDLVYYEASPNFCEPNPETGSFGTRDRTCNVSSHGIDGCDLLCCGRGHNARAERRREKCRCVFHWCCYVSCQECTRVYDVHTCK	increased significantly
